We go through seven compounds from BindingDB's records for doi:10.1016/j.chembiol.2011.11.010 (Harvard Medical School, 2012).

Holding throughout (experiment): JNK Kinase Assay
Assay [1] concerns the target Mitogen-activated protein kinase 8 (Homo sapiens, UniProt P45983).
Description: (§1) The binding results were confirmed by measuring IC50 for the inhibition of JNK kinase activity by using Z'-LYTE assay format.
Assay [2] concerns the target Mitogen-activated protein kinase 9 (Homo sapiens, UniProt P45984).
Description: as §1
In assay [3] the target is Mitogen-activated protein kinase 10 (Homo sapiens, UniProt P53779).
Description: as §1

SMILES strings stand for the structures. pIC50: −log10 of the molar value.

Chain of Mitogen-activated protein kinase 10 (P53779 whole entry): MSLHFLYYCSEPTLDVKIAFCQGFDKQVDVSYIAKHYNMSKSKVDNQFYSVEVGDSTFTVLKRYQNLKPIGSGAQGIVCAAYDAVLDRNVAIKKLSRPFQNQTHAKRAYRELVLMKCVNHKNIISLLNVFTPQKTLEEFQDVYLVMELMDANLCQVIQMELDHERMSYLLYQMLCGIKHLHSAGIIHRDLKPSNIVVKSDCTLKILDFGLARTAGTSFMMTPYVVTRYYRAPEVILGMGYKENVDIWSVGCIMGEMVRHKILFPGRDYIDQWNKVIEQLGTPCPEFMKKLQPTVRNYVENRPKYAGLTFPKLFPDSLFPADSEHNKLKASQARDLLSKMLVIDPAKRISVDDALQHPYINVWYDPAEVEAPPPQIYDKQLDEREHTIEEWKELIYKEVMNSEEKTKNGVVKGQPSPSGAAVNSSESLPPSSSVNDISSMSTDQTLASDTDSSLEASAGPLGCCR
Chain of Mitogen-activated protein kinase 9 (P45984 whole entry): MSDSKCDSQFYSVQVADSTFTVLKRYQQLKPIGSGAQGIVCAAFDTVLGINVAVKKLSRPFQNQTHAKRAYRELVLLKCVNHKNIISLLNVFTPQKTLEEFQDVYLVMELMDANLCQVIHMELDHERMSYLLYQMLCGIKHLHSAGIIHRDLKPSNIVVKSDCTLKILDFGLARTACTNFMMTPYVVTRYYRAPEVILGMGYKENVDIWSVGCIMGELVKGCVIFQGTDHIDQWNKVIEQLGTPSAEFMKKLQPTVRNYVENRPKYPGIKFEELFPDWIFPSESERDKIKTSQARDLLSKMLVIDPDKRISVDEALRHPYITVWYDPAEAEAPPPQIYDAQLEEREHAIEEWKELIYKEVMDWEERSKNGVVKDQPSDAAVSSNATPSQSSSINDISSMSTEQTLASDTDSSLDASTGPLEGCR
Chain of Mitogen-activated protein kinase 8 (P45983 whole entry): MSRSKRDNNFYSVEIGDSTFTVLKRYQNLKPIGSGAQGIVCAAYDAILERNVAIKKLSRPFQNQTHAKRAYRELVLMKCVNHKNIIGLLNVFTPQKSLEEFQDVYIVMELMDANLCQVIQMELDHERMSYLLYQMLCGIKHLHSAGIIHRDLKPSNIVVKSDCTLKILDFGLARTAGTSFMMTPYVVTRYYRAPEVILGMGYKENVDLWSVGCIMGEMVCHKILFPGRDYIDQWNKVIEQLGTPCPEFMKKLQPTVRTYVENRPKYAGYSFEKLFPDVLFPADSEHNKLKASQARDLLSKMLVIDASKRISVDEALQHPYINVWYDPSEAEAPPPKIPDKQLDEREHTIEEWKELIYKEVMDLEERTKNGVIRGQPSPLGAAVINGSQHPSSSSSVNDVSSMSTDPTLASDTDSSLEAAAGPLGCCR

The term pIC50 denotes the IC50 on a negative log10 scale, so that one unit is a factor of ten. Low readings indicate a high IC50, high ones a low IC50. As for `CN(C)C/C=C/C(=O)Nc1ccc(C(=O)Nc2cccc(Nc3nccc(-c4cccnc4)n3)c2)cc1` [JNK-IN-2], the pIC50 was 6.09 in assay [1] and 5.94 in assay [2].

`O=C1c2ccccc2-c2n[nH]c3cccc1c23` had a negative logarithm of the IC50 (pIC50) in assay [3] of 6.72.

On to `Cc1ccc(NC(=O)c2ccc(NC(=O)/C=C/CN(C)C)cc2)cc1Nc1nccc(-c2cccnc2)n1` [JNK-IN-1], for which the figures for the negative logarithm of the IC50 (pIC50) in assay [1], in assay [3] and in assay [2] were 5.11, 5.11 and 5.37, respectively.

As for `N#CC(c1ccnc(NCCc2cccnc2)n1)c1nc2ccccc2s1` (configuration not stated) [[3H-Benzothiazol-(2Z)-ylidene]-[2-(2-pyridin-3-yl-ethylamino)-pyrimidin-4-yl]-acetonitrile], the pIC50 is 6.82 in assay [1] and 6.66 in assay [2].

Take `CN(C)C/C=C/C(=O)Nc1cccc(C(=O)Nc2ccc(Nc3nccc(C(C#N)c4nc5ccccc5s4)n3)cc2)c1` (configuration not stated) [JNK-IN-12]: the pIC50 in assay [1] was 7.89; in assay [3], 7.96; in assay [2], 7.95.

For `CN(C)C/C=C/C(=O)NCc1ccc(C(=O)Nc2cccc(Nc3nccc(-c4cccnc4)n3)c2)cc1` [JNK-IN-4], the figures for the negative-log IC50 (pIC50) in assay [1], in assay [3] and in assay [2] were 5.62, 5.14 and 5.26, respectively.

As for `CN(C)C/C=C/C(=O)Nc1ccc(C(=O)Nc2cccc(Oc3nccc(-c4cccnc4)n3)c2)cc1` [JNK-IN-3], the pIC50 in assay [1], in assay [3] and in assay [2] was < 5.00 throughout.
